Laboratory results from US20230029496A1, “AMINO ACID ALTERNATIVE CURING SYSTEM” (THE TEXAS A&M UNIVERSITY SYSTEM, priority 2019, published 2023).
Values joined by “and” are separate entries in the source; they are usually repeats but may differ in a detail not shown here. Equal values may be shown once. Marks after values point to notes of the source that are not given here.

What was measured:
[1] = system: Nitric Oxide Synthase (NOS) system; experiment: Residual nitrite in pre-rigor and post-rigor pork semimembranosus muscle immersed in L-arginine (Example 13); assay type: biochemical
Protocol: Pre-rigor pork semimembranosus muscle samples were collected from four pre-rigor pork carcasses (n=4) harvested at the Rosenthal Meat Science and Technology Center at Texas A&M University at three separate times over a three day period (N=12). Post-rigor pork semimembranosus muscle samples were collected from the same carcasses eighteen hours after harvesting to ensure the full onset and completion of rigor (N=12). Muscle samples were treated with the same five concentrations of L-arginine and water as the control treatment. Samples were either heated (water bath increasing from room temperature ([…]) to 62° C. for 60 min) or left raw/fresh (uncooked). The overall experiment was designed as a 6 (5 L-arginine concentrations and a control) by 4 (pork carcasses) by 2 (heating treatment (raw and cooked)) factorial replicated 3 times (collection) (N=144) for both pre-rigor and post-rigor muscle types.
Solutions were prepared by Wu's specifications to stabilize the muscle samples for enclosed reactions within 50 mL conical tubes. […] The NaCl was used to suspend and stabilize any reaction and the NaE was used to accelerate the cure reaction. The L-arginine (L-arginine monohydrochloride, Ajinomoto Inc., Raleigh, N.C.) concentrations were prepared separately for administration as a treatment once the five grams of meat were added to the reaction tubes at dilutions of 0 mM, 2 mM, 4 mM, 8 mM 16 mM, and 32 mM.
Residual nitrite was determine using the modified AOAC Official Method 973.31 (Nitrite Analysis in Cured Meats Procedure) and was verified by Wu with sample (plasma or serum) preparation for amino acid analysis by HPLC and determination of nitrite (UV/VIS Spectrophotometric Method). This method was used to best determine any residual nitrite found in samples to compensate for both pre-rigor and post rigor effects on detecting residual nitrite. All samples were tested one week later after being held in a −30° C. freezer then thawed in a 0° C. cooler.

[2] = system: Nitric Oxide Synthase (NOS) system; experiment: Cure efficiency (NO-heme, total heme, nitrosylation) of cooked pre- and post-rigor pork semimembranosus muscle (Example 13); assay type: biochemical
Protocol: Cooked meat samples were analyzed for the degree of nitrosylation through residual nitrite from the Pearson and Tauber method from the modified Hornsey's procedure for analyzing small samples [103] from the supernatant and pellet. 2 mL or 2 g of the samples were treated with acetone to measure NO-heme concentration and for total heme concentration, 2 mL or 2 g of the samples were treated with acetone and hydrochloric acid. Both samples were measured using a spectrophotometer (2100 Series Spectrophotometer, Unico, Dayton, N.J.) and a 1 cm quartz cuvette. NO-heme concentration (ppm acid hematin) was read at 540 nm, and total heme concentration (ppm acid hematin) was determined at 640 nm to determine nitrosylation as the indication of the effectiveness of L-arginine in curing the samples. This procedure measured the conversion levels of myoglobin to nitrosohemochromagen, the cured meat color, and the amount of conversion as compared to the total pigmentation within the sample.
Curing efficiency or nitrosylation is calculated as the percentage conversion of NO-heme to total heme. Cure efficiency is the percentage of total pigment converted to nitroso pigment and indicates the degree of cured color fading. Cured meat pigment is extracted in a solution of 80% acetone and 20% water that extracts cured pigment heme. Total heme pigments are extracted using an acidified acetone solution that extracts heme from all heme proteins as first used by Hornsey. NO-heme concentration (as ppm acid hematin)=sample A540×290 determines the specific cure color pink from the rest of the heme pigmentation of the sample. Total heme concentration (ppm acid hematin)=sample A640×680 determines the total heme pigmentation of the sample. Cure efficiency (%)=(ppm of nitrosoheme […]ppm of total pigment)×100 and indicates how much of the product is cured and holds the cured pink stability once cooked.

[3] = 2 mM L-arginine, cooked supernatant
[4] = 2 mM L-arginine, raw supernatant, stored one week at -30° C.
[5] = 4 mM L-arginine, cooked supernatant
[6] = 4 mM L-arginine, raw supernatant, stored one week at -30° C.
[7] = 8 mM L-arginine, cooked supernatant
[8] = 8 mM L-arginine, raw supernatant, stored one week at -30° C.
[9] = 16 mM L-arginine, cooked pellet
[10] = 16 mM L-arginine, cooked supernatant
[11] = 16 mM L-arginine, raw supernatant, stored one week at -30° C.
[12] = 32 mM L-arginine, cooked pellet
[13] = 32 mM L-arginine, cooked supernatant
[14] = 32 mM L-arginine, raw supernatant, stored one week at -30° C.
[15] = 2 mM L-arginine, cooked post rigor pellet
[16] = 2 mM L-arginine, cooked post rigor supernatant
[17] = 2 mM L-arginine, cooked pre-rigor pellet
[18] = 2 mM L-arginine, cooked pre-rigor supernatant
[19] = 4 mM L-arginine, cooked post rigor pellet
[20] = 4 mM L-arginine, cooked post rigor supernatant
[21] = 4 mM L-arginine, cooked pre-rigor pellet
[22] = 4 mM L-arginine, cooked pre-rigor supernatant
[23] = 8 mM L-arginine, cooked post rigor pellet
[24] = 8 mM L-arginine, cooked post rigor supernatant
[25] = 8 mM L-arginine, cooked pre-rigor pellet
[26] = 8 mM L-arginine, cooked pre-rigor supernatant
[27] = 16 mM L-arginine, cooked post rigor pellet
[28] = 16 mM L-arginine, cooked post rigor supernatant
[29] = 16 mM L-arginine, cooked pre-rigor pellet
[30] = 16 mM L-arginine, cooked pre-rigor supernatant
[31] = 32 mM L-arginine, cooked post rigor pellet
[32] = 32 mM L-arginine, cooked post rigor supernatant
[33] = 32 mM L-arginine, cooked pre-rigor pellet
[34] = 32 mM L-arginine, cooked pre-rigor supernatant

SMILES: N=C(N)NCCC[C@H](N)C(=O)O [L-arginine]
- Residual Post rigor Nitrite ([1]; 2 mM L-arginine, cooked pellet): 19.36^b ppm
- Residual Pre-rigor Nitrite ([1]; 2 mM L-arginine, cooked pellet): 22.87^a ppm
- Residual Post rigor Nitrite [1, 3]: 61.12 ppm and 61.12^a ppm
- Residual Pre-rigor Nitrite [1, 3]: 50.72 ppm and 50.72^a ppm
- Residual Post rigor Nitrite [1, 4]: 9.42^a ppm
- Residual Pre-rigor Nitrite [1, 4]: 15.26^a ppm
- Residual Post rigor Nitrite ([1]; 4 mM L-arginine, cooked pellet): 23.72 ppm and 23.72^ab ppm
- Residual Pre-rigor Nitrite ([1]; 4 mM L-arginine, cooked pellet): 22.64^a ppm
- Residual Post rigor Nitrite [1, 5]: 61.93 ppm and 61.93^a ppm
- Residual Pre-rigor Nitrite [1, 5]: 47.72 ppm and 47.72^ab ppm
- Residual Post rigor Nitrite [1, 6]: 14.50^a ppm
- Residual Pre-rigor Nitrite [1, 6]: 34.93^a ppm
- Residual Post rigor Nitrite ([1]; 8 mM L-arginine, cooked pellet): 22.06 ppm and 22.06^ab ppm
- Residual Pre-rigor Nitrite ([1]; 8 mM L-arginine, cooked pellet): 19.70^a ppm
- Residual Post rigor Nitrite [1, 7]: 52.69 ppm and 52.69^ab ppm
- Residual Pre-rigor Nitrite [1, 7]: 38.63 ppm and 38.63^ab ppm
- Residual Post rigor Nitrite [1, 8]: 21.83^a ppm
- Residual Pre-rigor Nitrite [1, 8]: 44.58^a ppm
- Residual Post rigor Nitrite [1, 9]: 22.15 ppm and 22.15^ab ppm
- Residual Pre-rigor Nitrite [1, 9]: 31.94^a ppm
- Residual Post rigor Nitrite [1, 10]: 53.74 ppm and 53.74^a ppm
- Residual Pre-rigor Nitrite [1, 10]: 24.62 ppm and 24.62^ab ppm
- Residual Post rigor Nitrite [1, 11]: 23.54^a ppm
- Residual Pre-rigor Nitrite [1, 11]: 11.92^a ppm
- Residual Post rigor Nitrite [1, 12]: 32.87 ppm and 32.87^a ppm
- Residual Pre-rigor Nitrite [1, 12]: 40.14 ppm and 40.14^a ppm
- Residual Post rigor Nitrite [1, 13]: 52.90 ppm and 52.90^ab ppm
- Residual Pre-rigor Nitrite [1, 13]: 20.08 ppm and 20.08^ab ppm
- Residual Post rigor Nitrite [1, 14]: 16.51^a ppm
- Residual Pre-rigor Nitrite [1, 14]: 22.09^a ppm
- Residual Nitrite ([1]; pre-rigor raw supernatant, range over all concentrations of L-arginine): 11.92-44.58 ppm
- residual nitrite levels ([1]; raw post rigor supernatant, range over all concentrations of L-arginine): 9.06-23.54 ppm
- NO-Heme [2, 15]: 16.10^b ppm
- Nitrosylation [2, 15]: 31.22^a %
- Total Heme [2, 15]: 62.56^a ppm
- NO-Heme [2, 16]: 23.76^a ppm
- Nitrosylation [2, 16]: 61.38^a %
- Total Heme [2, 16]: 64.43^a ppm
- NO-Heme [2, 17]: 19.02^a ppm
- Nitrosylation [2, 17]: 52.09^a %
- Total Heme [2, 17]: 61.48 ppm and 61.48^ab ppm
- NO-Heme [2, 18]: 26.02 ppm and 26.02^ab ppm
- Nitrosylation [2, 18]: 60.23^a %
- Total Heme [2, 18]: 50.43^a ppm
- NO-Heme [2, 19]: 19.72 ppm and 19.72^ab ppm
- Nitrosylation [2, 19]: 35.19^a %
- Total Heme [2, 19]: 67.72^a ppm
- NO-Heme [2, 20]: 22.81^a ppm
- Nitrosylation [2, 20]: 55.90^a %
- Total Heme [2, 20]: 73.33^a ppm
- NO-Heme [2, 21]: 18.82^a ppm
- Nitrosylation [2, 21]: 49.31^a %
- Total Heme [2, 21]: 52.07 ppm and 52.07^ab ppm
- NO-Heme [2, 22]: 28.17 ppm and 28.17^ab ppm
- Nitrosylation [2, 22]: 70.03^a %
- Total Heme [2, 22]: 40.86^a ppm
- NO-Heme [2, 23]: 18.34 ppm and 18.34^ab ppm
- Nitrosylation [2, 23]: 35.53^a %
- Total Heme [2, 23]: 63.58^a ppm
- NO-Heme [2, 24]: 25.98^a ppm
- Nitrosylation [2, 24]: 79.27^a %
- Total Heme [2, 24]: 62.90^a ppm
- NO-Heme [2, 25]: 16.38^a ppm
- Nitrosylation [2, 25]: 31.43^a %
- Total Heme [2, 25]: 80.07 ppm and 80.07^ab ppm
- NO-Heme [2, 26]: 32.98^a ppm
- Nitrosylation [2, 26]: 75.71^a %
- Total Heme [2, 26]: 45.11^a ppm
- NO-Heme [2, 27]: 18.42 ppm and 18.42^ab ppm
- Nitrosylation [2, 27]: 62.80^a %
- Total Heme [2, 27]: 51.68^a ppm
- NO-Heme [2, 28]: 20.54^a ppm
- Nitrosylation [2, 28]: 52.33^a %
- Total Heme [2, 28]: 54.46^a ppm
- NO-Heme [2, 29]: 26.56^a ppm
- Nitrosylation [2, 29]: 55.29^a %
- Total Heme [2, 29]: 123.31 ppm and 123.31^a ppm
- NO-Heme [2, 30]: 22.45 ppm and 22.45^ab ppm
- Nitrosylation [2, 30]: 55.02^a %
- Total Heme [2, 30]: 42.05^a ppm
- NO-Heme [2, 31]: 27.33 ppm and 27.33^a ppm
- Nitrosylation [2, 31]: 34.51^a %
- Total Heme [2, 31]: 85.11^a ppm
- NO-Heme [2, 32]: 25.50^a ppm
- Nitrosylation [2, 32]: 104.27^a %
- Total Heme [2, 32]: 59.73^a ppm
- NO-Heme [2, 33]: 33.37^a ppm
- Nitrosylation [2, 33]: 86.11^a %
- Total Heme [2, 33]: 53.72 ppm and 53.72^ab ppm
- NO-Heme [2, 34]: 27.67^ab ppm
- Nitrosylation [2, 34]: 66.20^a %
- Total Heme [2, 34]: 44.94^a ppm
